Each structure is given as a SMILES string. Starred links: 1 amine or outer side, 2 acyl side, 3 side chain; linkers in the order of their positions; H or OH if unused. Non-standard residues stand in square brackets, D forms with d. Residues, ends and D or L forms follow the SMILES beside them. Phe(ψ(S)CH(OH)CH2N)Pro = O=C([C@@H]1CCCN1C[C@H](O)[C@H](Cc1ccccc1)N[*:1])[*:2]

In general, IC50 refers to the concentration needed to halve the response being measured. Read a high IC50 as weaker potency in that assay.

The test addresses Human immunodeficiency virus type 1 protease (Human immunodeficiency virus 1, UniProt Q72874). As to the kind of experiment: Inhibitory potency against HIV-1 protease.

`CC[C@H](C)[C@H](NC(=O)[C@@H]1CCCN1C[C@@H](O)[C@H](Cc1ccccc1)NC(=O)[C@H](CC(N)=O)NC(=O)OCc1ccccc1)C(=O)N[C@H](C(=O)OC)C(C)C` gave an IC50 of 13 nM. This counts as double-digit nanomolar.

Compound `CC(C)(C)NC(=O)[C@@H]1CCCCN1C[C@@H](O)[C@H](Cc1ccccc1)NC(=O)[C@H](CC(N)=O)NC(=O)c1ccc2ccccc2n1` showed an IC50 of 470 nM.

Regarding `CC(C)(C)N(C[C@@H](O)[C@H](Cc1ccccc1)NC(=O)[C@H](CC(N)=O)NC(=O)c1ccc2ccccc2n1)C(=O)NCC1CCCCC1`, the IC50 was 5 nM.

For the compound `CCCCN(C[C@@H](O)[C@H](Cc1ccccc1)NC(=O)[C@H](CC(N)=O)NC(=O)OCc1ccccc1)C(=O)NCC(C)C`, the midpoint of inhibition, the IC50, lay at 942 nM.

`CC(C)(C)N(C[C@@H](O)[C@H](Cc1ccccc1)NC(=O)[C@H](CC(N)=O)NC(=O)OCc1ccccc1)C(=O)NCC1CCCCC1` had an IC50 of 29 nM.

Consider `CC(C)CCNC(=O)N(C[C@@H](O)[C@H](Cc1ccccc1)NC(=O)[C@H](CC(N)=O)NC(=O)c1ccc2ccccc2n1)C(C)(C)C`, for which inhibition was half-maximal at 3 nM (IC50). This IC50 lies about 9.7-fold lower than the previous one.

With `CC(C)(C)NC(=O)C1CCCCN1C[C@H](O)[C@H](Cc1ccccc1)NC(=O)C(CC(N)=O)NC(=O)c1ccc2ccccc2n1` (stereo partly drawn), the IC50 was 2 nM.

On to `CC(C)CNC(=O)N(C[C@@H](O)[C@H](Cc1ccccc1)NC(=O)[C@H](CC(N)=O)NC(=O)OCc1ccccc1)C(C)(C)C`, for which 35 nM corresponded to half-maximal inhibition (IC50).

As for `CC(C)(C)N(C[C@@H](O)[C@H](Cc1ccccc1)NC(=O)[C@H](CC(N)=O)NC(=O)c1ccc2ccccc2n1)C(=O)NCc1ccccc1`, the IC50 was 3 nM.

Compound `CC(C)(C)NC(=O)C1CCCCN1C[C@H](O)[C@H](Cc1ccccc1)NC(=O)C(CC#N)NC(=O)OCc1ccccc1` (stereo partly drawn) had an IC50 of 23 nM.

Turning to `CC(C)(C)N(C[C@@H](O)[C@H](Cc1ccccc1)NC(=O)[C@H](CC(N)=O)NC(=O)c1ccc2ccccc2n1)C(=O)NCc1ccncc1`, 19 nM corresponded to half-maximal inhibition (IC50).

As to `CC(C)CNC(=O)N(C)C[C@@H](O)[C@H](Cc1ccccc1)NC(=O)[C@H](CC(N)=O)NC(=O)OCc1ccccc1`, the 50% inhibitory concentration (IC50) is 1500 nM.

`C[C@@H](NC(=O)N(C[C@@H](O)[C@H](Cc1ccccc1)NC(=O)[C@H](CC(N)=O)NC(=O)OCc1ccccc1)C(C)(C)C)c1ccccc1` gave an IC50 of 6500 nM.

On to `CC(C)(C)N(C[C@@H](O)[C@H](Cc1ccccc1)NC(=O)[C@H](CC(N)=O)NC(=O)OCc1ccccc1)C(=O)NCc1ccccc1`, for which it took 19 nM to reach half-maximal inhibition (IC50). This IC50 is about 340-fold lower than that of the compound before.

Compound `CCCN(C[C@@H](O)[C@H](Cc1ccccc1)NC(=O)[C@H](CC(N)=O)NC(=O)OCc1ccccc1)C(=O)NCC(C)C` had an IC50 of 519 nM.

Consider `CC(C)(C)OC(=O)N[C@@H](Cc1ccccc1)C(O)C[C@@H](Cc1ccccc1)C(=O)N[C@H]1c2ccccc2C[C@H]1O` (stereo partly drawn), for which the IC50 is 252 nM.

`CC[C@H](C)[C@H](NC(=O)[C@@H]1CCCN1CC(O)[C@H](Cc1ccccc1)NC(=O)[C@H](CC(N)=O)NC(=O)c1ccc2ccccc2n1)C(=O)N[C@@H](Cc1ccccc1)C(=O)OC` (stereo partly drawn) gave an IC50 of 2.3 nM.

In the case of `CC[C@H](C)[C@H](NC(=O)[C@@H]1CCCN1CC(O)[C@H](Cc1ccccc1)NC(=O)[C@H](CC(N)=O)NC(=O)OCc1ccccc1)C(=O)N[C@H](C(=O)OC)C(C)C` (stereo partly drawn), the IC50 was 316 nM.

`CC[C@@H](C)[C@H](NC(=O)[C@@H](CC(C)C)C(O)C(O)[C@H](CC(C)C)NC(=O)C(Cc1c[nH]cn1)NC(=O)COc1cccc2ccccc12)C(=O)NCc1ccccn1` (stereo partly drawn) had an IC50 of 495 nM.

Compound `C[C@H](NC(=O)N(C[C@@H](O)[C@H](Cc1ccccc1)NC(=O)[C@H](CC(N)=O)NC(=O)OCc1ccccc1)C(C)(C)C)c1ccccc1` showed an IC50 of 5090 nM. Compared with the last compound, the IC50 is about 10-fold higher.

Turning to `CCCCN(C[C@@H](O)[C@H](Cc1ccccc1)NC(=O)[C@H](CC(N)=O)NC(=O)c1ccc2ccccc2n1)C(=O)NCC(C)C`, the IC50 was 126 nM. This IC50 is about 40-fold lower than that of the compound before.

Regarding `CC(C)(C)NC(=O)[C@@H]1CCCN1C[C@H](O)[C@H](Cc1ccccc1)NC(=O)[C@H](CC(N)=O)NC(=O)OCc1ccccc1`, half-maximal inhibition (IC50) required 210 nM.

Turning to `CC[C@H](C)[C@H](NC(=O)[C@@H](C(C)C)C(O)C(O)[C@H](CC1CCCCC1)NC(=O)CC1CCCCC1)C(=O)NCc1ccccn1` (stereo partly drawn), half-maximal inhibition (IC50) was put at 49.5 nM. Against the preceding compound, the IC50 is about 4.2-fold lower.

`CC(C)(C)NC(=O)[C@@H]1C[C@@H]2CCCC[C@@H]2CN1C[C@@H](O)[C@H](Cc1ccccc1)NC(=O)[C@H](CC(N)=O)NC(=O)OCc1ccccc1` gave a concentration for half-maximal inhibition (IC50) of 316 nM.

For `CC[C@H](C)[C@H](NC(=O)[C@@H]1CCCN1C[C@@H](O)[C@H](Cc1ccccc1)NC(=O)[C@H](CC(N)=O)NC(=O)OCc1ccccc1)C(=O)N[C@@H](Cc1ccccc1)C(=O)OC`, the IC50 is 4 nM.

With `CC[C@H](C)[C@H](NC(=O)[C@@H](C(C)C)C(O)C(O)[C@H](CC1CCCCC1)NC(=O)[C@H](Cc1c[nH]cn1)NC(=O)COc1cccc2ccccc12)C(=O)NCc1ccccn1` (stereo partly drawn), the half-maximal inhibitory concentration (IC50) was 1.8 nM.

On to `CC[C@H](C)[C@H](NC(=O)[C@@H](CC(C)C)C(O)C(O)[C@H](CC1CCCCC1)NC(=O)[C@H](Cc1c[nH]cn1)NC(=O)COc1cccc2ccccc12)C(=O)NCc1ccccn1` (stereo partly drawn), for which half-maximal inhibition (IC50) was put at 11.2 nM. This IC50 lies about 6.2-fold higher than the previous one.

With `CC[C@H](C)[C@H](NC(=O)[C@@H]1C[C@@H]2CCCC[C@@H]2CN1C[C@@H](O)[C@H](Cc1ccccc1)NC(=O)[C@H](CC(N)=O)NC(=O)OCc1ccccc1)C(=O)N[C@H](C(=O)OC)C(C)C`, the half-inhibitory concentration (IC50) was 316 nM.

Regarding `CC[C@H](C)[C@H](NC(=O)[C@H](CC(C)C)C(O)C(O)[C@H](CC(C)C)NC(=O)[C@H](Cc1c[nH]cn1)NC(=O)COc1cccc2ccccc12)C(=O)NCc1ccccn1` (stereo partly drawn), half-maximal inhibition (IC50) required 15.7 nM.

Take `CC[C@H](C)[C@H](NC(=O)[C@@H](CC1CCCCC1)C(O)C(O)[C@H](CC1CCCCC1)NC(=O)[C@H](Cc1c[nH]cn1)NC(=O)COc1cccc2ccccc12)C(=O)NCc1ccccn1` (stereo partly drawn): the IC50 was 58.5 nM.

`CC[C@H](C)[C@H](NC(=O)[C@@H](C(C)C)C(O)C(O)[C@H](CC(C)C)NC(=O)[C@H](Cc1c[nH]cn1)NC(=O)[C@H](Cc1ccccc1)NC(=O)OC(C)(C)C)C(=O)NCc1ccccn1` (stereo partly drawn) gave an IC50 of 63 nM.

Compound `CC[C@H](C)[C@H](NC(=O)[C@@H](C(C)C)C(O)C(O)[C@H](CC(C)C)NC(=O)[C@H](Cc1c[nH]cn1)NC(=O)COc1cccc2ccccc12)C(=O)NCc1ccccn1` (stereo partly drawn) showed an IC50 of 11.2 nM.

In the case of `CC[C@H](C)[C@H](NC(=O)[C@@H](C(C)C)C(O)C(O)[C@H](CC1CCCCC1)NC(=O)[C@H](Cc1c[nH]cn1)NC(=O)COc1ccccc1)C(=O)NCc1ccccn1` (stereo partly drawn), it took 4.5 nM to reach half-maximal inhibition (IC50).

`CC[C@H](C)CNC(=O)[C@@H](C(C)C)C(O)C(O)[C@H](CC(C)C)NC(=O)[C@H](Cc1c[nH]cn1)NC(=O)[C@H](Cc1ccccc1)NC(=O)OC(C)(C)C` (stereo partly drawn) gave a half-inhibitory concentration (IC50) of 809 nM.

In turn, `CC[C@H](C)[C@H](NC(=O)[C@@H](C(C)C)C(O)C(O)[C@H](Cc1c[nH]cn1)NC(=O)COc1ccccc1)C(=O)NCc1ccccn1` (stereo partly drawn) showed an IC50 of 11.2 nM.

For the compound `CC[C@H](C)[C@H](NC(=O)[C@@H](C(C)C)C(O)C(O)[C@H](CC1CCCCC1)NC(=O)[C@H](Cc1c[nH]cn1)NC(=O)CN)C(=O)NCc1ccccn1` (stereo partly drawn), the concentration for half-maximal inhibition (IC50) was 24.8 nM.

For `CC[C@H](C)[C@H](NC(=O)[C@@H](C(C)C)C(O)C(O)[C@H](CC1CCCCC1)NC(=O)[C@H](Cc1c[nH]cn1)NC(=O)CO)C(=O)NCc1ccccn1` (stereo partly drawn), the half-maximal inhibitory concentration (IC50) is 8.99 nM.

Compound `CC[C@H](C)CNC(=O)[C@@H](C(C)C)C(O)C(O)[C@H](Cc1c[nH]cn1)NC(=O)COc1ccccc1` (stereo partly drawn) showed an IC50 of 809 nM.

In turn, `COC(=O)[C@@H](NC(=O)[C@H](CC(C)C)NC(=O)[C@@H]1CCCN1C[C@H](O)[C@H](Cc1ccccc1)NC(=O)[C@H](CC(N)=O)NC(=O)OC(C)(C)C)C(C)C` showed an IC50 of 849 nM.

Compound `CC(C)(C)OC(=O)[C@@H]1CCCN1C[C@H](O)[C@H](Cc1ccccc1)NC(=O)[C@H](CC(N)=O)NC(=O)c1ccc2ccccc2n1` gave an IC50 of 23 nM.

Compound `CC[C@H](C)[C@H](NC(=O)[C@@H](Cc1ccccc1)[C@@H](O)[C@H](O)[C@H](Cc1ccccc1)NC(=O)[C@H](Cc1c[nH]cn1)NC(=O)COc1cccc2ccccc12)C(=O)NCc1ccccn1` gave a half-inhibitory concentration (IC50) of 27 nM.

In the case of `CC(C)(C)N(C[C@@H](O)[C@H](Cc1ccccc1)NC(=O)[C@H](CC(N)=O)NC(=O)OCc1ccccc1)C(=O)NCc1ccncc1`, the half-maximal inhibitory concentration (IC50) was 105 nM.

Turning to `COC(=O)[C@@H](NC(=O)[C@H](CC(C)C)NC(=O)[C@@H]1CCCN1C[C@@H](O)[C@H](Cc1ccccc1)NC(=O)[C@H](CC(N)=O)NC(=O)OC(C)(C)C)C(C)C`, the half-inhibitory concentration (IC50) was 16 nM.

`CC(C)CNC(=O)N(C[C@@H](O)[C@H](Cc1ccccc1)NC(=O)[C@H](CC(N)=O)NC(=O)c1ccc2ccccc2n1)C(C)(C)C` had an IC50 of 6.01 nM.

`CC(C)CCNC(=O)N(C[C@@H](O)[C@H](Cc1ccccc1)NC(=O)[C@H](CC(N)=O)NC(=O)OCc1ccccc1)C(C)(C)C` had a half-inhibitory concentration (IC50) of 13 nM.

In the case of `CC(C)CNC(=O)N(C[C@@H](O)[C@H](Cc1ccccc1)NC(=O)[C@H](CC(N)=O)NC(=O)OCc1ccccc1)C(C)C`, it took 260 nM to reach half-maximal inhibition (IC50).

`CSCC(NC(=O)c1ccc2ccccc2n1)C(=O)N[C@@H](Cc1ccccc1)[C@@H](O)CN1CCCCC1C(=O)NC(C)(C)C` (stereo partly drawn) had an IC50 of 12 nM.

As for `CC(C)(C)OC(=O)N[C@@H](CC(N)=O)C(=O)N[C@@H](Cc1ccccc1)C(O)C[C@@H](Cc1ccccc1)C(=O)N[C@H]1c2ccccc2C[C@H]1O` (stereo partly drawn), the concentration for half-maximal inhibition (IC50) is 295 nM.

For the compound `CC(C)(C)OC(=O)[C@@H]1CCCN1CC(O)[C@H](Cc1ccccc1)NC(=O)[C@H](CC(N)=O)NC(=O)OCc1ccccc1` (stereo partly drawn), the IC50 is 140 nM.

The compound `CC(C)(C)NC(=O)[C@@H]1C[C@@H]2CCCC[C@@H]2CN1C[C@H](O)[C@H](Cc1ccccc1)NC(=O)[C@H](CC(N)=O)NC(=O)OCc1ccccc1` had an IC50 of 2.7 nM.

Turning to `CCN(C[C@@H](O)[C@H](Cc1ccccc1)NC(=O)[C@H](CC(N)=O)NC(=O)OCc1ccccc1)C(=O)NCC(C)C`, the half-inhibitory concentration (IC50) was 330 nM.

`CC(C)(C)OC(=O)[C@@H]1CCCN1C[C@H](O)[C@H](Cc1ccccc1)NC(=O)OCc1ccccc1` showed an IC50 of 6500 nM.

The compound `COC(=O)[C@@H](NC(=O)[C@H](CC(C)C)NC(=O)[C@@H]1CCCN1C[C@H](O)[C@H](Cc1ccccc1)NC(=O)[C@H](CC(N)=O)NC(=O)[C@H](CC(C)C)NC(=O)[C@H](CO)NC(C)=O)C(C)C` (Ac-SLN[Phe(ψ(S)CH(OH)CH2N)Pro]LV-OMe) showed an IC50 of 65 nM.

Source of the values: ChEMBL document CHEMBL1126565, “Three-dimensional QSAR of human immunodeficiency virus (I) protease inhibitors. 1. A CoMFA study employing experimentally-determined alignment rules” (J Med Chem, 1993).
